Laboratory results taken from patent US20180078498A1, “Microneedle Patch for Delivering an Active Ingredient to Skin” (LEO Pharma A/S, priority 2015, published 2018).

Assay: Testing of biodegradable polymers as microneedle matrix (physical stability, release, chemical stability of active ingredient)
Type: physicochemical
Experimental: In the course of research leading to the present invention, a large number of different biodegradable polymers were tested for their suitability to form a matrix from which the microneedles could be made.

Q: Which “chemical stability of calcipotriol” value (ester-terminated polylactide, polyglycolide or polylactide co-glycolide as the biodegradable polymer) does the source give for `C=C1/C(=C\C=C2/CCC[C@]3(C)[C@@H]([C@H](C)/C=C/[C@@H](O)C4CC4)CC[C@@H]23)C[C@@H](O)C[C@@H]1O` [calcipotriol] here?
A: The value was “chemically stable”.

Q: What about the “chemical stability of calcipotriol” value (in a matrix of polylactic acid, polyglycolic acid or polylactic co-glycolic acid) of the same compound?
A: Its value is “not chemically stable”.
